From article PMC8330100, “Similarities and differences in the localization, trafficking, and function of P-glycoprotein in MDR1-EGFP-transduced rat versus human brain capillary endothelial cell lines” (Fluids and Barriers of the CNS, 2021) come the findings set out here.

Test [1] deals with Pgp expression in RBE4 cells. The experiment in a line: Western blot of Pgp expression, RBE4 cells. It is filed as cell-based, rat. How it is done: (§1) Piet Borst (The Netherlands Cancer Institute, Amsterdam, The Netherlands) as template. The linker sequence in the vector fusing EGFP and MDR1 consists of 36 bp ([…]). hCMEC/D3-WT, RBE4-WT, and hCMEC/D3-MDR1-EGFP cell lines were cultivated as previously described. The same culture conditions were used for the newly prepared RBE4-MDR1-EGFP cell line. As described previously, hydrocortisone (1.4 µM) was added to the culture medium to enhance the expression and functionality of Pgp and transendothelial resistance. All endothelial cell lines were grown on rat-tail collagen I (60 µg/mL, Gibco) coated 100 mm cultures dishes or permeable membrane supports at 37 °C and 5% CO2. Pgp-EGFP protein expression in MDR1-EGFP transduced cells was induced by cell cultivation in medium containing […] doxycycline. Expression of Pgp-EGFP was regularly verified by observing the cells with an inverted fluorescence microscope. Doxycycline supplementation of the medium was maintained during the whole culturing period of Pgp-EGFP expressing cells. For experiments, hCMEC/D3 and RBE4 cells were seeded in a density of 50,000 cells/cm^2. […]
(§2) Pgp expression in immortalized cell lines, primary cells, and brain capillaries was evaluated by western blotting.

Test [2] has as its system Pgp expression in hCMEC/D3 cells. The experiment in a line: Western blot of Pgp expression, hCMEC/D3 cells. In kind it is cell-based, human. How it is done: as §1, §2
Background: Immunoblotting shows a protein as a band on a membrane.

In the case of `C[C@H]1c2cccc(O)c2C(=O)C2=C(O)[C@]3(O)C(=O)C(C(N)=O)=C(O)[C@@H](N(C)C)[C@@H]3[C@@H](O)[C@@H]21` [dox, doxycycline], the “increase of Pgp expression in comparison to WT cells” value is on record as 9 fold in test [1] (RBE4-MDR1-EGFP in the presence of dox, normalized to β-actin) and “sevenfold” in test [2] (hCMEC/D3-MDR1-EGFP in the presence of dox, normalized to β-actin). Besides, the “effect on Pgp expression in WT cells” value in test [1] (RBE4-WT) and in test [2] (hCMEC/D3-WT) was “did not affect” each time.
